Reference: patent US8481544B2, “Antibacterial compositions” (Biota Europe Limited, priority 2006, dated 2013)
Converted amounts (≈) assume the structure as drawn.

Each molecule was assayed on Enterococcus faecalis ATCC 29212 (assay: MIC against Enterococcus faecalis ATCC 29212). Conditions: ATCC29212; Enterococcus faecalis ATCC 29212; read-out: MICs against Enterococcus faecalis, Activity.
Type: cell-based
How it was run: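 MIC measured by broth microdilution or agar dilution following CLSI guidelines (M7-A7 for aerobes, M11-A6 for anaerobes).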

Row | MIC | Structure (SMILES)
1 | 0.25 to 1 µg/mL (≈ 0.637 to 2.55 µM) | CCNC(=O)Nc1nc2cc(-c3cccnc3)cc(-c3ccccc3F)c2s1 [Example 75, 1-Ethyl-3-[7-(2-fluoro-phenyl)-5-pyridin-3-yl-benzothiazol-2-yl]-urea]
2 | 2 to 16 µg/mL (≈ 5.1 to 40.8 µM) | CCNC(=O)Nc1nc2cc(Br)cc(-c3ccc(N)nc3)c2s1 [Example 1, 1-[7-(6-Amino-pyridin-3-yl)-5-bromo-benzothiazol-2-yl]-3-ethyl-urea]
3 | 0.25 to 1 µg/mL (≈ 0.526 to 2.1 µM) | CCNC(=O)Nc1nc2cc(-c3ccc(NC(=O)CN(C)C)nc3)cc(-c3ccccn3)c2s1 [Example 66, 2-Dimethylamino-N-{5-[2-(3-ethyl-ureido)-7-pyridin-2-yl-benzothiazol-5-yl]-pyridin-2-yl}-acetamide]
4 | 0.25 to 1 µg/mL (≈ 0.664 to 2.66 µM) | CCNC(=O)Nc1nc2cc(-c3cncnc3)cc(-c3cccnc3)c2s1 [Example 13, 1-Ethyl-3-(7-pyridin-3-yl-5-pyrimidin-5-yl-benzothiazol-2-yl)-urea]
5 | 0.25 to 1 µg/mL (≈ 0.511 to 2.04 µM) | CCNC(=O)Nc1nc2cc(-c3ccc(NC(C)=O)nc3)cc(-c3ccc(NC(C)=O)nc3)c2s1 [Example 148, N-{5-[7-(6-Acetylamino-pyridin-3-yl)-2-(3-ethyl-ureido)-benzothiazol-5-yl]-pyridin-2-yl}-acetamide]
6 | 2 to 16 µg/mL (≈ 4.19 to 33.5 µM) | CCNC(=O)Nc1nc2cc(-c3cccnc3)cc(-c3cnn(CCN4CCOCC4)c3)c2s1 [Example 81, 1-Ethyl-3-{7-[1-(2-morpholin-4-yl-ethyl)-1H-pyrazol-4-yl]-5-pyridin-3-yl-benzothiazol-2-yl}-urea]
7 | < 0.25 µg/mL | CCNC(=O)Nc1nc2cc(-c3cccnc3)cc(-c3ccc(Cl)cn3)c2s1 [Example 130, 1-[7-(5-Chloro-pyridin-2-yl)-5-pyridin-3-yl-benzothiazol-2-yl]-3-ethyl-urea]
8 | 0.25 to 1 µg/mL (≈ 0.617 to 2.47 µM) | CCNC(=O)Nc1nc2cc(-c3ccn(C)c(=O)c3)cc(-c3cccnc3)c2s1 [Example 47, 1-Ethyl-3-[5-(1-methyl-2-oxo-1,2-dihydro-pyridin-4-yl)-7-pyridin-3-yl-benzothiazol-2-yl]-urea]
9 | 0.25 to 1 µg/mL (≈ 0.577 to 2.31 µM) | CCNC(=O)Nc1nc2cc(-c3ccc(CO)cc3)cc(-c3ccc(CO)cc3)c2s1 [Example 144, 1-[5,7-Bis-(4-hydroxymethyl-phenyl)-benzothiazol-2-yl]-3-ethyl-urea]
10 | < 0.25 µg/mL | CCNC(=O)Nc1nc2cc(-c3cccnc3)cc(-c3cncs3)c2s1 [Example 161, 1-Ethyl-3-(5-pyridin-3-yl-7-thiazol-5-yl-benzothiazol-2-yl)-urea]
11 | 0.25 to 1 µg/mL (≈ 0.615 to 2.46 µM) | CCNC(=O)Nc1nc2cc(-c3cccnc3)cc(-c3ccc(OC)nn3)c2s1 [Example 105, 1-Ethyl-3-[7-(6-methoxy-pyridazin-3-yl)-5-pyridin-3-yl-benzothiazol-2-yl]-urea]
12 | 2 to 16 µg/mL (≈ 5.49 to 43.9 µM) | CCNC(=O)Nc1nc2cc(-n3cccn3)cc(-c3cccnc3)c2s1 [Example 12, 1-Ethyl-3-(5-pyrazol-1-yl-7-pyridin-3-yl-benzothiazol-2-yl)-urea]
13 | 0.25 to 1 µg/mL (≈ 0.615 to 2.46 µM) | CCNC(=O)Nc1nc2cc(-c3cnc(OC)nc3)cc(-c3cccnc3)c2s1 [Example 15, 1-Ethyl-3-[5-(2-methoxy-pyrimidin-5-yl)-7-pyridin-3-yl-benzothiazol-2-yl]-urea]
14 | < 0.25 µg/mL | CCNC(=O)Nc1nc2cc(-c3cccnc3)cc(-c3cccc(CO)n3)c2s1 [Example 104, 1-Ethyl-3-[7-(6-hydroxymethyl-pyridin-2-yl)-5-pyridin-3-yl-benzothiazol-2-yl]-urea]
15 | < 0.25 µg/mL | CCNC(=O)Nc1nc2cc(-c3cccnc3)cc(-c3cnc(N)cn3)c2s1 [Example 131, 1-[7-(5-Amino-pyrazin-2-yl)-5-pyridin-3-yl-benzothiazol-2-yl]-3-ethyl-urea]
16 | 2 to 16 µg/mL (≈ 5.26 to 42.1 µM) | CCNC(=O)Nc1nc2cc(Br)cc(-c3cnn(C)c3)c2s1 [Example 5, 1-[5-Bromo-7-(1-methyl-1H-pyrazol-4-yl)-benzothiazol-2-yl]-3-ethyl-urea]
17 | 0.25 to 1 µg/mL (≈ 0.657 to 2.63 µM) | CCNC(=O)Nc1nc2cc(-c3cccnc3)cc(-c3ccsc3)c2s1 [Example 77, 1-Ethyl-3-(5-pyridin-3-yl-7-thiophen-3-yl-benzothiazol-2-yl)-urea]
18 | 2 to 16 µg/mL (≈ 4.71 to 37.7 µM) | CCNC(=O)Nc1nc2cc(I)cc(-c3cccnc3)c2s1 [Example 8, 1-Ethyl-3-(5-iodo-7-pyridin-3-yl-benzothiazol-2-yl)-urea]
19 | < 0.25 µg/mL | CCNC(=O)Nc1nc2cc(-c3cccnc3)cc(-c3cc(OC)ccn3)c2s1 [Example 112, 1-Ethyl-3-[7-(4-methoxy-pyridin-2-yl)-5-pyridin-3-yl-benzothiazol-2-yl]-urea]
20 | 0.25 to 1 µg/mL (≈ 0.597 to 2.39 µM) | CCNC(=O)Nc1nc2cc(-c3cccnc3)cc(-c3cc(N(C)C)ccn3)c2s1 [Example 169, 1-[7-(4-Dimethylamino-pyridin-2-yl)-5-pyridin-3-yl-benzothiazol-2-yl]-3-ethyl-urea]
21 | 2 to 16 µg/mL (≈ 4.22 to 33.8 µM) | CCNC(=O)Nc1nc2cc(-c3ccc(CN4CCOCC4)cc3)cc(-c3cccnc3)c2s1 [Example 21, 1-Ethyl-3-[5-(4-morpholin-4-ylmethyl-phenyl)-7-pyridin-3-yl-benzothiazol-2-yl]-urea]

Row | MIC | Structure (SMILES)
22 | < 0.25 µg/mL | CCNC(=O)Nc1nc2cc(-c3cccnc3)cc(-c3cc(CO)ccn3)c2s1 [Example 121, 1-Ethyl-3-[7-(4-hydroxymethyl-pyridin-2-yl)-5-pyridin-3-yl-benzothiazol-2-yl]-urea]
23 | 0.25 to 1 µg/mL (≈ 0.53 to 2.12 µM) | CCNC(=O)Nc1nc2cc(-c3ccc(NC(C)=O)nc3)cc(-c3nccc4cc[nH]c34)c2s1 [Example 137, N-{5-[2-(3-Ethyl-ureido)-7-(1H-pyrrolo[2,3-c]pyridin-7-yl)-benzothiazol-5-yl]-pyridin-2-yl}-acetamide]
24 | 0.25 to 1 µg/mL (≈ 0.624 to 2.5 µM) | CCNC(=O)Nc1nc2cc(-c3cncc(C#N)c3)cc(-c3cccnc3)c2s1 [Example 24, 1-[5-(5-Cyano-pyridin-3-yl)-7-pyridin-3-yl-benzothiazol-2-yl]-3-ethyl-urea]
25 | < 0.25 µg/mL | CCNC(=O)Nc1nc2cc(-c3cncnc3)cc(-c3ccccn3)c2s1 [Example 35, 1-Ethyl-3-(7-pyridin-2-yl-5-pyrimidin-5-yl-benzothiazol-2-yl)-urea]
26 | 0.25 to 1 µg/mL (≈ 0.666 to 2.66 µM) | CCNC(=O)Nc1nc2cc(-c3ccncc3)cc(-c3cccnc3)c2s1 [Example 30, 1-Ethyl-3-(5-pyridin-4-yl-7-pyridin-3-yl-benzothiazol-2-yl)-urea]
27 | < 0.25 µg/mL | CCNC(=O)Nc1nc2cc(-c3cccnc3)cc(-c3cccc(C#N)n3)c2s1 [Example 113, 1-[7-(6-Cyano-pyridin-2-yl)-5-pyridin-3-yl-benzothiazol-2-yl]-3-ethyl-urea]
28 | < 0.25 µg/mL | CCNC(=O)Nc1nc2cc(-c3cnc(N)nc3)cc(-c3cnccn3)c2s1 [Example 139, 1-[5-(2-Amino-pyrimidin-5-yl)-7-pyrazin-2-yl-benzothiazol-2-yl]-3-ethyl-urea]
29 | 0.25 to 1 µg/mL (≈ 0.686 to 2.74 µM) | CCNC(=O)Nc1nc2cc(-c3ccoc3)cc(-c3ccccn3)c2s1 [Example 37, 1-Ethyl-3-(5-furan-3-yl-7-pyridin-2-yl-benzothiazol-2-yl)-urea]
30 | < 0.25 µg/mL | CCNC(=O)Nc1nc2cc(-c3ccc(CC(=O)OC)nc3)cc(-c3ccccn3)c2s1 [Example 69, {5-[2-(3-Ethyl-ureido)-7-pyridin-2-yl-benzothiazol-5-yl]-pyridin-2-yl}-acetic acid methyl ester]
31 | 0.25 to 1 µg/mL (≈ 0.597 to 2.39 µM) | CCNC(=O)Nc1nc2cc(-c3ccc(CNC)nc3)cc(-c3ccccn3)c2s1 [Example 67, 1-Ethyl-3-[5-(6-methylaminomethyl-pyridin-3-yl)-7-pyridin-2-yl-benzothiazol-2-yl]-urea]
32 | 0.25 to 1 µg/mL (≈ 0.664 to 2.66 µM) | CCNC(=O)Nc1nc2cc(-c3cccnc3)cc(-c3ncccn3)c2s1 [Example 93, 1-Ethyl-3-(5-pyridin-3-yl-7-pyrimidin-2-yl-benzothiazol-2-yl)-urea]
33 | 0.25 to 1 µg/mL (≈ 0.564 to 2.26 µM) | CCNC(=O)Nc1nc2cc(-c3cccnc3)cc(-c3ccc(C(F)(F)F)cn3)c2s1 [Example 129, 1-Ethyl-3-[5-pyridin-3-yl-7-(5-trifluoromethyl-pyridin-2-yl)-benzothiazol-2-yl]-urea]
34 | < 0.25 µg/mL | CCNC(=O)Nc1nc2cc(-c3cccnc3)cc(-c3cc(C)ccn3)c2s1 [Example 176, 1-Ethyl-3-[7-(4-methyl-pyridin-2-yl)-5-pyridin-3-yl-benzothiazol-2-yl]-urea]
35 | < 0.25 µg/mL | CCNC(=O)Nc1nc2cc(-c3cccnc3)cc(-c3cc(N)ccn3)c2s1 [Example 100, 1-[7-(4-Amino-pyridin-2-yl)-5-pyridin-3-yl-benzothiazol-2-yl]-3-ethyl-urea]
36 | 2 to 16 µg/mL (≈ 4.91 to 39.3 µM) | CCNC(=O)Nc1nc2cc(-c3cnc(N)nc3)cc(-c3cnc(N)nc3)c2s1 [Example 145, 1-[5,7-Bis-(2-amino-pyrimidin-5-yl)-benzothiazol-2-yl]-3-ethyl-urea]
37 | 0.25 to 1 µg/mL (≈ 0.574 to 2.3 µM) | CCNC(=O)Nc1nc2cc(-c3ccn(CCO)c(=O)c3)cc(-c3ccccn3)c2s1 [Example 57, 1-Ethyl-3-{5-[1-(2-hydroxy-ethyl)-2-oxo-1,2-dihydro-pyridin-4-yl]-7-pyridin-2-yl-benzothiazol-2-yl}-urea]
38 | < 0.25 µg/mL | CCNC(=O)Nc1nc2cc(-c3cccnc3)cc(-c3ncnc4[nH]ccc34)c2s1 [Example 116, 1-Ethyl-3-[5-pyridin-3-yl-7-(7H-pyrrolo[2,3-d]pyrimidin-4-yl)-benzothiazol-2-yl]-urea]
39 | < 0.25 µg/mL | CCNC(=O)Nc1nc2cc(-c3cccnc3)cc(-c3cccc(C)n3)c2s1 [Example 177, 1-Ethyl-3-[7-(6-methyl-pyridin-2-yl)-5-pyridin-3-yl-benzothiazol-2-yl]-urea]
40 | < 0.25 µg/mL | CCNC(=O)Nc1nc2cc(-c3cccnc3)cc(-c3ncccc3Cl)c2s1 [Example 126, 1-[7-(3-Chloro-pyridin-2-yl)-5-pyridin-3-yl-benzothiazol-2-yl]-3-ethyl-urea]
41 | 2 to 16 µg/mL (≈ 5.3 to 42.4 µM) | CCNC(=O)Nc1nc2cc(Br)cc(-c3cccnc3)c2s1 [Example 2, 1-(5-Bromo-7-pyridin-3-yl-benzothiazol-2-yl)-3-ethyl-urea]
42 | < 0.25 µg/mL | CCNC(=O)Nc1nc2cc(-c3ccc(C)nc3)cc(-c3ccccn3)c2s1 [Example 41, 1-Ethyl-3-[5-(6-methyl-pyridin-3-yl)-7-pyridin-2-yl-benzothiazol-2-yl]-urea]

Same assay, conditions: Enterococcus faecalis, ATCC29212; ATCC 29212; Table 5; read-out: MIC against Enterococcus faecalis (Activity)

Row | MIC | Structure (SMILES)
43 | 0.25 to 1 µg/mL (≈ 0.661 to 2.64 µM) | CCNC(=O)Nc1nc2cc(-c3cnccn3)nc(-c3cnccn3)c2s1 [Example 181, 1-(4,6-di(pyrazin-2-yl)thiazolo[5,4-c]pyridin-2-yl)-3-ethylurea]
